# Test system: anti-CD28 scFv (SEQ ID NO: 9)
# Assay: Octet bio-layer interferometry kinetic binding of anti-CD28 scFv to peptides
# Design: species or system human
# Details: Octet RED96; biotinylated peptide loaded on streptavidin biosensor; anti-CD28 scFv in solution; 1:1 binding model
# Protocol: (§1) Association and dissociation signals were recorded in real time and analyzed using a 1:1 binding model within the instrument software. Analysis using a 1:1 binding model enabled the calculation of the on and off rate constants as well as affinity, KD.
# as §1
row,SMILES,kdis [s⁻¹]
1,CSCC[C@H](N)C(=O)N[C@@H](CC(=O)O)C(=O)N[C@@H](Cc1c[nH]c2ccccc12)C(=O)N[C@H]1CSSC[C@@H](C(=O)N[C@@H](Cc2ccccc2)C(=O)N[C@@H](CC(N)=O)C(=O)O)NC(=O)[C@H](CCC(=O)O)NC(=O)[C@H](CC(N)=O)NC(=O)[C@H](Cc2c[nH]c3ccccc23)NC(=O)[C@H](CC(C)C)NC(=O)[C@H](Cc2ccc(O)cc2)NC(=O)[C@H](CC(C)C)NC(=O)[C@@H]2CCCN2C1=O [Peptide-36],0.00252
2,CSCC[C@H](N)C(=O)N[C@@H](CC(=O)O)C(=O)N[C@@H](Cc1c[nH]c2ccccc12)C(=O)N[C@H]1CSSC[C@@H](C(=O)N[C@@H](Cc2ccccc2)C(=O)N[C@@H](C)C(=O)O)NC(=O)[C@H](CC(C)C)NC(=O)[C@H](CC(=O)O)NC(=O)[C@H](Cc2c[nH]c3ccccc23)NC(=O)[C@H](CC(C)C)NC(=O)[C@H](CC(=O)O)NC(=O)[C@H](CCCNC(=N)N)NC(=O)[C@@H]2CCCN2C1=O [Peptide-37],0.00351
3,CSCC[C@H](N)C(=O)N[C@@H](CC(=O)O)C(=O)N[C@@H](Cc1c[nH]c2ccccc12)C(=O)N[C@H]1CSSC[C@@H](C(=O)N[C@@H](Cc2ccccc2)C(=O)N[C@@H](C)C(=O)O)NC(=O)[C@H](CCC(=O)O)NC(=O)[C@H](Cc2c[nH]cn2)NC(=O)[C@H](Cc2c[nH]c3ccccc23)NC(=O)[C@H](CC(C)C)NC(=O)[C@H](CC(=O)O)NC(=O)[C@H](CCCNC(=N)N)NC(=O)[C@@H]2CCCN2C1=O [Peptide-38],0.00277
4,CSCC[C@H](N)C(=O)N[C@@H](CC(=O)O)C(=O)N[C@@H](Cc1c[nH]c2ccccc12)C(=O)N[C@H]1CSSC[C@@H](C(=O)N[C@@H](Cc2ccccc2)C(=O)N[C@@H](CO)C(=O)O)NC(=O)[C@H](CC(C)C)NC(=O)[C@H](Cc2c[nH]cn2)NC(=O)[C@H](Cc2c[nH]c3ccccc23)NC(=O)[C@H](CC(C)C)NC(=O)[C@H](CC(=O)O)NC(=O)[C@H](CCCNC(=N)N)NC(=O)[C@@H]2CCCN2C1=O [Peptide-39],0.00265
5,CSCC[C@H](N)C(=O)N[C@@H](CC(=O)O)C(=O)N[C@@H](Cc1c[nH]c2ccccc12)C(=O)N[C@H]1CSSC[C@@H](C(=O)N[C@@H](Cc2ccccc2)C(=O)N[C@@H](Cc2ccccc2)C(=O)O)NC(=O)[C@H](CCC(=O)O)NC(=O)[C@H](CO)NC(=O)[C@H](Cc2c[nH]c3ccccc23)NC(=O)[C@H](CC(C)C)NC(=O)[C@H](CC(=O)O)NC(=O)[C@H](CCCNC(=N)N)NC(=O)[C@@H]2CCCN2C1=O [Peptide-40],0.0031
6,CSCC[C@H](N)C(=O)N[C@@H](CC(=O)O)C(=O)N[C@@H](Cc1c[nH]c2ccccc12)C(=O)N[C@H]1CSSC[C@@H](C(=O)N[C@@H](Cc2ccccc2)C(=O)N[C@@H](C)C(=O)O)NC(=O)[C@H](Cc2c[nH]cn2)NC(=O)[C@H](C(C)C)NC(=O)[C@H](Cc2c[nH]c3ccccc23)NC(=O)[C@H](CC(C)C)NC(=O)[C@H](CC(=O)O)NC(=O)[C@H](CCCNC(=N)N)NC(=O)[C@@H]2CCCN2C1=O [Peptide-41],0.00154
7,CSCC[C@@H]1NC(=O)[C@H](CC(=O)O)NC(=O)[C@H](CCCNC(=N)N)NC(=O)[C@@H]2CCCN2C(=O)[C@@H](NC(=O)[C@H](Cc2c[nH]c3ccccc23)NC(=O)[C@H](CC(=O)O)NC(=O)[C@@H](N)CCSC)CSSC[C@@H](C(=O)N[C@@H](Cc2ccccc2)C(=O)N[C@@H](C)C(=O)O)NC(=O)[C@H](CCC(=O)O)NC(=O)[C@H](CC(=O)O)NC(=O)[C@H](Cc2c[nH]c3ccccc23)NC1=O [Peptide-42],0.00433
8,CSCC[C@@H]1NC(=O)[C@H](CC(=O)O)NC(=O)[C@H](CCCNC(=N)N)NC(=O)[C@@H]2CCCN2C(=O)[C@@H](NC(=O)[C@H](Cc2c[nH]c3ccccc23)NC(=O)[C@H](CC(=O)O)NC(=O)[C@@H](N)CCSC)CSSC[C@@H](C(=O)N[C@@H](Cc2ccccc2)C(=O)N[C@@H](C)C(=O)O)NC(=O)[C@H](CCC(=O)O)NC(=O)[C@H](CO)NC(=O)[C@H](Cc2c[nH]c3ccccc23)NC1=O [Peptide-43],0.0032
